Key:
EGFR L858R-T790M = target: T1, EGFR L858R-T790M (Homo sapiens, UniProt P00533, L858R/T790M); test: EGFR degradation, Total EGFR (L858R-specific) HTRF, NCI-H1975; format: cell-based; conditions: Table 9A; NCI-H1975 cells, 6 hours, Total EGFR HTRF; read-out: H1975 EGFR DC50
T1 construct: NCI-H1975 (harboring EGFR heterozygous L858R-T790M mutations); host or cells: NCI-H1975
How it was run: (§1)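 Cells in RPMI 1640 + 10% FBS treated 6 h at 37°C with compound, 11-point half-log titration from 10 μM top, in duplicate. pY1068 and total EGFR read by HTRF (pan-EGFR antibody for wild-type A431; L858R-specific for mutants); IC50 for phospho inhibition, DC50 for 50% degradation.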

EGFR L858R-T790M-C797S = target: T2, EGFR L858R-T790M-C797S (Homo sapiens, UniProt P00533, C797S/L858R/T790M); test: EGFR degradation, Total EGFR (L858R-specific) HTRF, NCI-H1975+CS; format: cell-based; conditions: H1975 + CS (L858R-T790M-C797S), 6 hours; read-out: tEGFR DC50
T2 construct: generated using CRISPR technology to introduce the additional C797S mutation by Horizon Discovery; host or cells: NCI-H1975+CS (CRISPR knock-in of C797S)
How it was run: as §1

EGFR WT = target: T3, EGFR WT (Homo sapiens, UniProt P00533); test: EGFR degradation, Total EGFR (pan-EGFR) HTRF, A431; format: cell-based; conditions: A431 (wild-type), 6 hours; read-out: tEGFR DC50
T3 construct: A431 (harboring EGFR wildtype) was purchased from ATCC; host or cells: A431
Source text: (§2) NCI-H1975 (harboring EGFR heterozygous L858R-T790M mutations) and NCI-H3255 (harboring EGFR heterozygous L858R mutation) were purchased from ATCC and NCI, respectively. NCI-H1975+CS (harboring EGFR heterozygous L858R-T790M-C797S mutations) was generated using CRISPR technology to introduce the additional C797S mutation by Horizon Discovery. A431 (harboring EGFR wildtype) was purchased from ATCC. RPMI 1640 no-phenol red medium and fetal bovine serum (FBS) were purchased from Gibco (Grand Island, NY, USA). Cell culture flasks and 384-well microplates were acquired from VWR (Radnor, PA, USA). Phosphorylated (pY1068) EGFR and Total EGFR (using L858R-specific detection antibody and pan-EGFR antibody for EGFR mutant cell lines and EGFR wild-type cell lines, respectively) HTRF assay kits were purchased from Cisbio (Bedford, MA, USA).
(§3) Degradation of EGFR protein containing L858R mutation or wild-type was determined based on quantification of FRET signal using a Total EGFR (L858R-specific or pan-EGFR detecting) HTRF assay kit. Phospho-EGFR (pEGFR) inhibition was determined based on quantification of FRET signal using a pY1068 EGFR HTRF assay kit. In separate assay plates, test compounds were added to the 384-well plate from a top concentration of 10 μM with 11 points, half log titration in duplicates. For each assay, 12.5 uL of cells suspended in assay media (RPMI 1640 no-phenol red medium+10% FBS) at cell densities indicated for each cell line in Table 8 below were dispensed using a multi-channel pipette to 384-well low volume white HTRF microplates containing a duplicate concentration range of test compounds and DMSO controls. The plates were kept at 37° C. with 5% CO2 for 6 hours and then incubated with either phospho EGFR or Total EGFR HTRF detection antibodies according to the cell line and EGFR mutant being assayed. Cells treated in the absence of the test compound were the negative control. Positive control was set by wells containing all reagents but no cells. FRET signal was acquired on EnVision™ Multilabel Reader (PerkinElmer, Santa Clara, CA, USA). Compound concentration that achieves 50% degradation and inhibition was reported as DC50 and IC50, respectively.

pY1068 EGFR L858R-T790M = target: T4, pY1068 EGFR L858R-T790M (Homo sapiens, UniProt P00533, L858R/T790M); test: Phospho-EGFR (pY1068) inhibition HTRF, NCI-H1975; format: cell-based; conditions: 6 hours, read-out: pEGFR IC50
T4 construct: NCI-H1975 (harboring EGFR heterozygous L858R-T790M mutations); host or cells: NCI-H1975
Source text: as §2, §3

pY1068 EGFR L858R = target: T5, pY1068 EGFR L858R (Homo sapiens, UniProt P00533, L858R); test: Phospho-EGFR (pY1068) inhibition HTRF, NCI-H3255; format: cell-based; conditions: 6 hours, read-out: pEGFR IC50
T5 construct: NCI-H3255 (harboring EGFR heterozygous L858R mutation); host or cells: NCI-H3255
Source text: as §2, §3

[1] = target: T6, pY1068 EGFR L858R-T790M-C797S (Homo sapiens, UniProt P00533, C797S/L858R/T790M); test: Phospho-EGFR (pY1068) inhibition HTRF, NCI-H1975+CS; format: cell-based; conditions: 6 hours, read-out: pEGFR IC50
T6 construct: generated using CRISPR technology to introduce the additional C797S mutation by Horizon Discovery; host or cells: NCI-H1975+CS (CRISPR knock-in of C797S)
Source text: as §2, §3

EGFR L858R = EGFR L858R (Homo sapiens, UniProt P00533, L858R); test: EGFR degradation, Total EGFR (L858R-specific) HTRF, NCI-H3255; format: cell-based; design: NCI-H3255 (harboring EGFR heterozygous L858R mutation); host or cells: NCI-H3255; conditions: H3255 (L858R), 6 hours; read-out: tEGFR DC50
How it was run: as §1

[2] = test system: BaF3 cells expressing EGFR L858R; test: Ba/F3 EGFR cell viability (CellTiter-Glo), L858R; format: cell-based; conditions: Mus musculus, read-out: CTGlo (GI50)
Source text: (§4) RPMI 1640 media, cell culture flasks, and 384-well microplates were purchased from VWR (Radnor, PA, USA). Fetal bovine serum (FBS) was purchased from Life Technologies (Carlsbad, CA, USA) and CellTiter-Glo® was purchased from Promega (Madison, WI, USA). The Ba/F3 parental cell line was purchased from CrownBio (Santa Clara, CA). BaF3 cell lines ectopically expressing the EGFR mutations L858R, L858R-T790M, L858R-C797S, and L858R-T790M-C797S were purchased from CrownBio and EGFR mutations L858R-L718Q, L858R-T790M-L718Q, L858R-L792H, and L858R-T790M-L792H, were purchased from Signosis (Santa Clara, CA).
(§5) Cell viability was assessed based on the quantification of ATP using the CellTiter-Glo® assay (Promega, Madison, WI, USA). To determine the effect of compounds on cell viability, all Ba/F3 cell lines were plated at a cell density of 2000 cells/well in 384-well plates using RPMI 1640+10% FBS and treated with compounds of interest using a 10-point half-log dilution series in duplicate for 72 hours, with the highest dose set at […]. CellTiter-Glo® reagent was then added and luminescence signals were measured using an EnVision™ Multimode plate reader (Perkin Elmer, Santa Clara, CA). For data normalization, cells untreated with the test compounds at Time=72 hours were set to 100% (equivalent to maximal cell growth after 72 hours); cells untreated with the test compounds at Time=0 hours were set to 0% (equivalent to cytostasis); and media-only wells were set to −100% (equivalent to complete cytotoxicity). % Viability was determined by normalizing the signal with positive and DMSO treated negative controls on the same microtiter plate. The half-maximal inhibition of cell growth (GI50) is computed from where the fitted curve crosses 50% while the half-maximal lethal dose (LD50) is computed from where the fitted curve crosses −50%.

[3] = test system: BaF3 cells expressing EGFR L858R-T790M; test: Ba/F3 EGFR cell viability (CellTiter-Glo), L858R-T790M; format: cell-based; conditions: Mus musculus, read-out: CTGlo (GI50)
Source text: as §4, §5

[4] = test system: BaF3 cells expressing EGFR L858R-C797S; test: Ba/F3 EGFR cell viability (CellTiter-Glo), L858R-C797S; format: cell-based; conditions: Mus musculus, read-out: CTGlo (GI50)
Source text: as §4, §5

[5] = test system: BaF3 cells expressing EGFR L858R-T790M-C797S; test: Ba/F3 EGFR cell viability (CellTiter-Glo), L858R-T790M-C797S; format: cell-based; conditions: Mus musculus, read-out: CTGlo (GI50)
Source text: as §4, §5

[6] = test system: BaF3 cells expressing wild-type EGFR; test: Ba/F3 EGFR cell viability (CellTiter-Glo), wild-type EGFR; format: cell-based; conditions: Mus musculus, Ba/F3 WT EGFR, read-out: CTGlo (GI50)
[7] = test system: engineered triple mutant EGFR (L858R-T790M-C797S) BaF3 tumors; test: BaF3 triple mutant EGFR allograft efficacy; format: in vivo, female BALB/c nude mice; conditions: Compound 1 or 2 at 20, 50, 100 mg/kg/day PO BID; osimertinib 25 mg/kg/day PO QD; 14 days
Experimental: Each Compound was administered BID (twice a day) orally (PO).
Tumor volume was measured twice weekly in two dimensions using calipers, and volume (mm^3) was calculated using the formula: V=0.5 a×b^2 where a and b are the long and short diameters of the tumor in mm, respectively. […] Treatment began on Day 0 with established subcutaneous BaF3 tumors with a mean tumor volume (MTV) of 108 mm^3.
Body weight and MTV were measured on a 2× weekly schedule. Statistical analysis was performed using a one-way ANOVA followed by Dunnett's multiple comparison test. Data are expressed as MTV±SEM.

T2 sequence (P00533 25-1210 T790M/C797S/L858R): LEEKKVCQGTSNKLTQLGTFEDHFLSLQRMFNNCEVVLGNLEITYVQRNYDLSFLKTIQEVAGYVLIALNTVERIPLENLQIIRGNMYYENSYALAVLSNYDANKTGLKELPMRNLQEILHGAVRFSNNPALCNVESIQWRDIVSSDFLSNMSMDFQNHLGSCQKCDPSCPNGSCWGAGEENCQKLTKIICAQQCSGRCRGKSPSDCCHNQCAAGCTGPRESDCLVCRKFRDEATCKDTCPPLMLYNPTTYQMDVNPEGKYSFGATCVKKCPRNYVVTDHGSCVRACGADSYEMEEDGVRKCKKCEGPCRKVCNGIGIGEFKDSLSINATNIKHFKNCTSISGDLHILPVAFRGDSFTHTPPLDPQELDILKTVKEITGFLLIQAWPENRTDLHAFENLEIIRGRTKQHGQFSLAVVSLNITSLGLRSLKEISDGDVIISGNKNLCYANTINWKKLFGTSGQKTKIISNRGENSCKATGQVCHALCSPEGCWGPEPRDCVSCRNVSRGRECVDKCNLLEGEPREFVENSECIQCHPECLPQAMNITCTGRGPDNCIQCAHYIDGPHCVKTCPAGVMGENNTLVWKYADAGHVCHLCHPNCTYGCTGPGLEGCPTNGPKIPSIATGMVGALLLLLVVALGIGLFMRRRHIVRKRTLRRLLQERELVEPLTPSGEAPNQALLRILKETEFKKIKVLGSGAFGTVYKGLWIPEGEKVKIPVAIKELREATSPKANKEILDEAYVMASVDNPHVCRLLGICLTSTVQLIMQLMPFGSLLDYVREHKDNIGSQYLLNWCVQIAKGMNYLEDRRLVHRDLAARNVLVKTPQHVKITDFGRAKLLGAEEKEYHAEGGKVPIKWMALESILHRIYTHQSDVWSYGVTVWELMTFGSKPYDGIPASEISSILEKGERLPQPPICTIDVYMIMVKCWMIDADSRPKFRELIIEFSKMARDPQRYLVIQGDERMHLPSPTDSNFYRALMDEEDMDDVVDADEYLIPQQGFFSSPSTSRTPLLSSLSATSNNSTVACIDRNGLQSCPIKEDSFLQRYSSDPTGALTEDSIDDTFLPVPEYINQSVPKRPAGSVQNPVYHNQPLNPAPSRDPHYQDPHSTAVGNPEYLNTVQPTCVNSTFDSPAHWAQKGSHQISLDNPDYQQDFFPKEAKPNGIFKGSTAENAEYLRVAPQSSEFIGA
T6 sequence (P00533 25-1210 T790M/C797S/L858R): as above
T4 sequence (P00533 25-1210 T790M/L858R): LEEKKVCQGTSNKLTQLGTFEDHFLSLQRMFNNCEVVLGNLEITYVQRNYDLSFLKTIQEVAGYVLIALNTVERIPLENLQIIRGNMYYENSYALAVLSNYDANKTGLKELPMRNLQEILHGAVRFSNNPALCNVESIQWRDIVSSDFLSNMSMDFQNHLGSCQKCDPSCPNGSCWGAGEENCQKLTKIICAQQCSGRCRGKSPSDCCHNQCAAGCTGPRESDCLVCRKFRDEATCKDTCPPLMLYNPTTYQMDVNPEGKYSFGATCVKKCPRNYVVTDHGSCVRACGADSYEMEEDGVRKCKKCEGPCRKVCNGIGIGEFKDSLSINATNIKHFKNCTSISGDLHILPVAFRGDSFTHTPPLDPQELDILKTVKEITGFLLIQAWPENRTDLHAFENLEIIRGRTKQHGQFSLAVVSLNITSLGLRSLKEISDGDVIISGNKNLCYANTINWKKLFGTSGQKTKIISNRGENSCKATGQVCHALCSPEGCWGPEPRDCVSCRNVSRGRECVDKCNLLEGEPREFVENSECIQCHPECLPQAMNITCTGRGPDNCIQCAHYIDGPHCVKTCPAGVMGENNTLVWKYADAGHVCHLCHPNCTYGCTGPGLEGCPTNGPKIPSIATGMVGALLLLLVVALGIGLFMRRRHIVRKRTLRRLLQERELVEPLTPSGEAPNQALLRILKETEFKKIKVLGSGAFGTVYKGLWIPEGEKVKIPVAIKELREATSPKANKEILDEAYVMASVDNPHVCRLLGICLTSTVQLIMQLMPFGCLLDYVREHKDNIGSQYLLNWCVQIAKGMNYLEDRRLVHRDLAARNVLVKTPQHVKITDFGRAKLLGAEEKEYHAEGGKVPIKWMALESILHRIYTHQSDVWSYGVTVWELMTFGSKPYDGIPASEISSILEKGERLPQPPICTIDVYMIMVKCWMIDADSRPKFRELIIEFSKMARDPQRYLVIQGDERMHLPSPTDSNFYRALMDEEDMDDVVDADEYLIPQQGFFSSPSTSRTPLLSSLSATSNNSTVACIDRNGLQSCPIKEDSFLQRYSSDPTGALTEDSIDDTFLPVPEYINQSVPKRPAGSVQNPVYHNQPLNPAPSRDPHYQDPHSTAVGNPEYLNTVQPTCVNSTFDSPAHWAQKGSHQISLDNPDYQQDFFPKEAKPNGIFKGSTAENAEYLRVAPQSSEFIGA
T1 sequence (P00533 25-1210 T790M/L858R): as above

| Compound | DC50 (EGFR L858R-T790M) [nM] | DC50 (EGFR L858R-T790M-C797S) [nM] | DC50 (EGFR WT) [nM] | IC50 (pY1068 EGFR L858R-T790M) [nM] | IC50 (pY1068 EGFR L858R) [nM] | IC50 [1] [nM] | DC50 (EGFR L858R) [nM] | GI50 [2] [nM] | GI50 [3] [nM] | GI50 [4] [nM] | GI50 [5] [nM] | GI50 [6] [nM] | efficacy on BaF3 tumor volume [7] |
| --- | --- | --- | --- | --- | --- | --- | --- | --- | --- | --- | --- | --- | --- |
| Cn1nc(N2CCC(=O)NC2=O)c2ccc(C3CCN(CC(=O)N4CC5(C4)CN(c4ccc(-c6cc(F)c7c(c6)C(=O)N(C(C(=O)Nc6ccccn6)c6ncn8c6CCC8)C7)cc4)C5)CC3(F)F)cc21 (centres unmarked) [Compound 5, 2-(6,7-dihydro-5H-pyrrolo[1,2-c]imidazol-1-yl)-2-[6-[4-[2-[2-[4-[3-(2,4-dioxohexahydropyrimidin-1-yl)-1-methyl-indazol-6-yl]-3,3-difluoro-1-piperidyl]acetyl]-2,6-diazaspiro[3.3]heptan-6-yl]phenyl]-4-fluoro-1-oxo-isoindolin-2-yl]-N-(2-pyridyl)acetamide] | < 50 | 23 | > 10000 | 12 | 19 | 22 | 22 |  |  |  |  |  |  |
| Cn1nc(N2CCC(=O)NC2=O)c2ccc(C3CCN(CC(=O)N4CC5(C4)CN(c4ccc(-c6cc(F)c7c(c6)C(=O)N(C(C(=O)Nc6nccs6)c6ncn8c6CCC8)C7)cc4)C5)CC3(F)F)cc21 (centres unmarked) [Compound 3, 2-(6,7-dihydro-5H-pyrrolo[1,2-c]imidazol-1-yl)-2-[6-[4-[2-[2-[4-[3-(2,4-dioxohexahydropyrimidin-1-yl)-1-methyl-indazol-6-yl]-3,3-difluoro-1-piperidyl]acetyl]-2,6-diazaspiro[3.3]heptan-6-yl]phenyl]-4-fluoro-1-oxo-isoindolin-2-yl]-N-thiazol-2-yl-acetamide] | < 50 | 33 | > 10000 | 11 | 8 | 19 | 8 | 3 | 9 | 2 | 3 | 248 |  |
| C=CC(=O)Nc1cc(Nc2nccc(-c3cn(C)c4ccccc34)n2)c(OC)cc1N(C)CCN(C)C [osimertinib, reference compound] |  |  |  |  |  |  |  |  |  |  |  |  | minimal efficacy |
